Measured values published in patent US10272056B2, “Treatment for mitochondrial diseases” (The George Washington University a Congressionally …, priority 2015, dated 2019).
Entries after “also recorded” stand apart in the source; their conditions may differ.

Assays:
PC12-ND6 cells [1] = experiment: mtDNA replication (PicoGreen staining, quantitative PCR); type: cell-based; details: confirmed by quantitative PCR
Excerpt: FIG. 11A-11D are images from microscopy and graphs showing NaBt promotes mtDNA replication via the NRF-1/Tfam axis. (A) Confocal analysis of mtDNA foci; scale bar=5 (B) Quantitative analysis of mtDNA copy number by PCR; *p<0.001. (C, D) Quantitative immunoblot analysis of NRF-1 and Tfam; *p<0.001.
NaBt enhances mtDNA replication via the PGC1α-mediated NRF-1/Tfam axis. It was investigated whether NaBt enhanced mtDNA replication using the PicoGreen® dye to label mtDNA. PC12-ND6 cells were transfected with the mito-dsRed vector prior to NaBt treatment followed by PicoGreen® staining. […] To corroborate enhanced mitochondrial biogenesis, two key target genes of PGC1α were examined, the NRF-1 transcription factor and its direct target gene Tfam, both essential for mitochondrial biogenesis. […] The findings confirm the NaBt-mediated modulation of mitochondrial biogenesis and mtDNA replication in neuronal cells.

E17.5 neurons = experiment: In vivo mitochondrial mass of E17.5 brains from treated pregnant dams; parameters: species or system mice; details: E12.5 pregnant dams, NaBt 1.2 g/Kg intraperitoneally vs PBS
Excerpt: FIG. 7A-7F show images from microscopy and graphs showing NaBt increases mitochondrial mass. (A) Live cell confocal microscopy of E17.5 hippocampal neurons; high magnification in inset; scale bar=5 (B) Quantitative analysis of the mitochondrial biomass in E17.5 neurons using an anti-CoxVα antibody; *p<0.001. (C) Live cell confocal microscopy of PC12-ND6 cells; high magnification in inset; scale bar=5 (D) Flow cytometric analysis of mitochondrial mass; *p<0.001. (E) Confocal microscopy of E17.5 brains from E12.5 pregnant dams treated with PBS (sham) or NaBt; scale bar=20 (F) Quantitative analysis of mitochondrial mass; *p<0.001.
Experimental paradigms. These are: 1) E17.5 differentiating hippocampal neurons expressing NeuroD6; 2) the PC12-NeuroD6 neuronal cell line recapitulating the early stages of differentiation; 3) E12.5 timed-pregnant dams treated intraperitoneally with NaBt (1.2 g/Kg) or PBS; and 4) cultured primary skin fibroblasts isolated from two MELAS patients and a healthy subject. Patient fibroblasts are the most suitable system to investigate the therapeutic potential of the butyrate derivatives (NaBt, TBN, and AN9) within the context of the patient's nuclear background and heteroplasmy, as MELAS animal models have not been generated due to polyploidy of the mt genome, heteroplasmic load, and influence of the nuclear background on MELAS phenotypic variability. […]

PC12-ND6 cells [2] = experiment: Cell viability by live-cell confocal microscopy (Nuclear-ID stain); type: cell-based; details: 5 mM NaBt, three days
Excerpt: FIG. 4A-4E are images from microscopy and graphs showing NaBt dose-dependent acetylation and cellular toxicity in PC12-ND6 cells and embryonic E17.5 hippocampal neurons. (A) Confocal micrographs of PC12-ND6 cells (referred to as ND6) grown in the absence or presence of NaBt for three days and labeled with an anti-acetylated Lys antibody (AcLys; green). Scale bar represents 10 μm. […] Results are expressed as relative fluorescence intensity±S.D. (n=250 cells per NaBt concentration; * p=0.0001). (C) Effect of NaBt on PC12-ND6 cell viability. […] Mean±SEM (n=250 cells for each experimental condition; * p=0.0001). (D) Confocal micrographs of NaBt dose-dependent acetylation in E17.5 hippocampal neurons (AcLys; green). Scale bar represents 10 μm.
Sodium butyrate increases protein acetylation in a dose-dependent manner without inducing cellular toxicity. A dose response analysis was performed to determine the optimal concentration of sodium butyrate (NaBt) for inducing maximal acetylation levels with minimal cellular toxicity. PC12-ND6 cells were treated with different concentrations of NaBt (2 mM, 5 mM, and 10 mM) for three days before assessing the degree of acetylated lysine residues by immunocytochemistry and cell viability by live-cell confocal microscopy using the Nuclear-ID™ stain.

[3] = test system: mouse models of neurodegenerative diseases and ischemia/stroke; details: in vivo; cited from earlier work
PC12-ND6 cells [4] = experiment: ROS (superoxide anions) by MitoSOX live cell confocal microscopy; type: cell-based; details: NaBt 5 mM, three days
Protocol: PC12-ND6 cells were grown in the absence or presence of NaBt (5 mM) for three days before being labeled with the MitoSox™ dye and the nuclear counterstain Hoechst 33342 and analyzed by live cell confocal imaging. Images are representative of three independent experiments. Scale bar represents 10 μm.
On the basis that increased ΔΨm could result in elevated ROS levels due to electron leakage through the mitochondrial electron transfer chain (ETC), the relative levels of superoxide anions (O2^−) were measured by live cell confocal microscopy using the redox-sensitive fluorogenic live-cell permeant dye MitoSOX™, as described in Uittenbogaard et al., 2010b.

[5] = test system: E17.5 hippocampal progenitor cells; experiment: Neuronal differentiation to stage 3 (β-III tubulin immunostaining); type: cell-based; details: NaBt 2 mM at 1DIV, read at 3DIV, no glial feeder layer; untreated 20%
Excerpt: FIG. 12A-12B are images from microscopy and a graph showing that NaBt concomitantly increases the mitochondrial biomass of E17.5 hippocampal progenitor cells and their neuronal differentiation. (A) High-resolution tile-stacked confocal micrographs of untreated and NaBt-treated E17.5 hippocampal neurons labeled with β-III tubulin (red) and nuclear counterstain DAPI (blue) at 3DIV with insets showing high magnification of the neuritic network. Scale bar represents 20 μm. (B) Graph of percent of β-III tubulin^+ cells having reached the neuronal stage 3. Mean±S.D. (n=250 cells for each condition; *p=0.0001).
Sodium butyrate-mediated increase in mitochondrial mass correlates with accelerated and enhanced neuronal differentiation of hippocampal progenitor cells. Since broad spectrum HDACis induce neuronal differentiation of adult neural progenitors (reviewed by Lee and Lee, 2010), it was assessed whether increase in mitochondrial mass upon NaBt exposure could accelerate the timing of the neuronal developmental stages of cultured E17.5 hippocampal progenitor cells in the absence of astroglial trophic support. To test this hypothesis, the well-defined chronology of the distinct phenotypic differentiation stages of cultured embryonic hippocampal cells was relied on. […] At 3DIV, cells were immunostained for the pan-neuronal marker β-III tubulin to quantify the percent of cells at stage 3.

SMILES: CCCC(=O)[O-].[Na+] [NaBt, sodium butyrate]
- mtDNA foci (PC12-ND6 cells [1]): increased number of mtDNA foci
- increase of in vivo mitochondrial mass of E17.5 neurons (E17.5 neurons): 1.6 fold
- cell death (PC12-ND6 cells [2]): negligible cell death
- effects in mouse models [3]: stimulates neurogenesis, enhances synaptic plasticity and memory, while preventing neuronal death
- ROS production (PC12-ND6 cells [4]): does not trigger ROS generation; also recorded: failed to generate ROS production
- percent of neurons advanced to stage 3 [5]: 90%
